Assay in all cases: microbe, parasite or virus in culture
The subject of one assay is Mtb KZN494/MDR. The format is cell-based, Mycobacterium tuberculosis. The following applies: Mycobacterium tuberculosis, KZN494/MDR, read-out: Mtb MIC KZN494/MDR.
The test system of another assay is Mtb V2475/MDR. The format is cell-based. The following applies: Mycobacterium tuberculosis, read-out: Mtb MIC V2475/MDR.
The next assay relates to Mtb TF274/XDR. Type of assay: cell-based. Conditions: Mycobacterium tuberculosis, read-out: Mtb MIC TF274/XDR.
A further assay concerns Mtb R506/XDR. Type of assay: cell-based. The following applies: Mycobacterium tuberculosis, read-out: Mtb MIC R506/XDR.

Converted amounts (≈) assume the structure as drawn.

Regarding `Cc1ccc2nc(C)c(C(=O)NCCCC3CCCCC3)n2c1` [Compound 15, N-(3-cyclohexylpropyl)-2,6-dimethylimidazo[1,2-a]pyridine-3-carboxamide], the MIC came out at 0.05 µM (≈ 0.0157 µg/mL) with Mtb KZN494/MDR, 0.2 µM (≈ 0.0627 µg/mL) in the assay with Mtb V2475/MDR, 0.2 µM (≈ 0.0627 µg/mL) in the assay with Mtb TF274/XDR and 0.1 µM (≈ 0.0313 µg/mL) in the assay with Mtb R506/XDR.

Consider `Cc1nc2ccc(Cl)cn2c1C(=O)NCCCC1CCCCC1` [Compound 16, 6-chloro-N-(3-cyclohexylpropyl)-2-methylimidazo[1,2-a]pyridine-3-carboxamide], for which the MIC worked out at 0.09 µM (≈ 0.03 µg/mL) in the assay on Mtb KZN494/MDR, 0.37 µM (≈ 0.124 µg/mL) in the assay with Mtb V2475/MDR, 1.5 µM (≈ 0.501 µg/mL) in the assay on Mtb TF274/XDR and 0.75 µM (≈ 0.25 µg/mL) in the assay on Mtb R506/XDR.

Values taken from PMC8720286 (Chemical biology & drug design, 2020).
